Read-outs that look alike come from different tables or passages of the source.
Key:
rhodopsin [1] = experiment: Rhodopsin regeneration after topical eye drops in mice; type: in vivo, Balb/c mice; conditions: for % of Rhodopsin recovery: 5% in eye drop at 6, 3 and 0 h before dark adaptation, LA + 1 h DA, DA control = 100
Procedure: Panel A: Application scheme and harvesting of the eye. 3 h group received 2 applications and 6 h group received 3 applications. Panel B: Rhodopsin content was measured as pmole/eye. In 1 h in the dark, untreated eyes (NT-LA 1 h DA, no treatment-light adapted followed by 1 hour dark adaptation) and vehicle-treated eyes recovered 75-80% rhodopsin [dark-adapted (DA) control is 100%], whereas 3 h PBN recovered only 43% and 6 h PBN only 29%. (***P<0.0001 compared to vehicle, n=8; ##p<0.005 between 3 h and 6 h group, n=8).
An eye drop formulation was used with various absorption enhancers for topical application of PBN to mouse eyes. […] One hour dark adaptation followed by light causes 75-80% recovery of bleachable rhodopsin in the Balb/c mice (FIG. 18B, NT-LA 1 h DA). The eye drop without PBN (vehicle) had no effect on rhodopsin regeneration (FIG. 18B, vehicle).
Eye drop formulations were prepared as described in Example 7 and contained 5% or 10% of a PBN derivative. The eye drop formulations were applied to Balb/c mice by the 6 h group application scheme shown in FIG. 18A, in which the eye drops were applied at 6, 3, and 0 h before dark adaptation. The eye drops were applied to completely light-adapted mouse eyes, and the mice were then moved to the dark for 1 h to allow the regeneration of bleachable rhodopsin. One hour dark adaptation followed by light causes […] recovery of bleachable rhodopsin in untreated mice (00, No Treatment). The eye drop without any nitrones (vehicle) had no effect on rhodopsin regeneration (000, vehicle).

rhodopsin [2] = experiment: Rhodopsin regeneration after bleach in rats, IP nitrone; type: in vivo, rat; conditions: Rattus norvegicus; rats, 50 mg/kg IP, 2 h room light then 2.5 h dark adaptation
Procedure: FIG. 10 graphically illustrates the effects of three PBN analogs of rhodopsin regeneration. Rhodopsin content was measured as nmole/retina following the procedure as in Mandal et al. (J Biol. Chem. 2011. 286 (37):32491-501). After injection with PBN derivatives or vehicles (saline), rats were left in room light for 2 hours (light adapted or LA) and then moved to dark. At 2.5 hours dark adaptation (DA), retinas were harvested. DA-Control, Dark adapted (12 h) control retina without any treatment to show normal rhodopsin content.
Measurement of rhodopsin regeneration—To measure the effect of PBN on the rate of rhodopsin regeneration, dark-adapted rats were injected intraperitoneally with PBN (50 mg/kg) or PBS 0.5 hour prior to a 2 hour bleach in room light (˜400 lux). Immediately following the bleach (time=0 minutes), a group of PBN- and vehicle-treated rats were killed, and retinas were removed and snap frozen. The remaining rats were dark-adapted, and retinas were collected under dim red light at 45, 90, and 180 minutes after the bleach.
Rhodopsin measurements were performed as described previously (2,36) with slight modification. Briefly, under dim red light, each retina was homogenized in 450 μl of buffer containing 10 mM Tris-HCl (pH 7.4), 150 mM NaCl, 1 mM EDTA, 2% (w/v) octylglucoside, and 50 mM hydroxylamine. Homogenates were centrifuged at 16,000 g, and soluble lysates were scanned from 270-800 nm in a spectrophotometer (Ultrospec 3000 UV/Vis Spectrophotometer, GE Healthcare, Piscataway, N.J.). Samples were then bleached under room light for 10 minutes and scanned again. The difference spectra at 500 nm between pre- and post-bleached samples were used to determine rhodopsin content using a molar extinction coefficient of […] (37). The values were normalized to the total lysate volume, and data are presented as rhodopsin content/retina.

RPE65 isomerohydrolase = molecular target: T1, RPE65 isomerohydrolase (Bos taurus, UniProt Q28175); experiment: In vitro RPE65 isomerohydrolase assay with bovine RPE microsomes (Example 3); type: biochemical
T1 construct: Bovine RPE microsomes were used as a source of the RPE65 protein; from tissue; host or cells: bovine RPE microsomes
Excerpt: In this Example, the effect of several PBN analogs on RPE65 isomerohydrolase activity was investigated in an in vitro assay. The chemical structures of the PBN analogs utilized are described herein above. Bovine RPE microsomes were used as a source of the RPE65 protein and all-trans-[^3H] retinol was a substrate for the isomerohydrolase assay. The produced 11-cis-[^3H] retinol was quantified by normal phase HPLC with flow scintillation analyzer. The inhibition of isomerohydrolase activity was dependent on the PBN analog's concentration.
FIG. 9 also illustrates the calculation of IC50 values for the two difluoro-PBN analogs. IC50 values are the concentration of the inhibitor that inhibits 50% of the enzymatic activity. Therefore, the smaller the IC50 value, the better the drug.

Rat Retina = experiment: Light-induced retinal degeneration in rats, systemic (IP) nitrone; ERG and ONL histology
Procedure: Consistent with previous publications (1-2,5), a dose of 50 mg/kg PBN and S-PBN dissolved in saline was chosen for intraperitoneal injection in the rats in the treatment group. An equal volume of saline was injected into control rats.
A light-stress paradigm of 2,700 lux for 6 hours was used to test the effect of PBN at different time points before (0.5 hour, 3 hours, 6 hours, 12 hours, 16 hours, and 24 hours) or after (0.5 hour and 3 hours) light exposure. The effect of S-PBN was tested using the same dose and protocol of PBN at 0.5 hours before light exposure.
Electroretinography—After light exposure, rats were returned to their dim cyclic light (5-10 lux) environment for 7 days before ERG recordings were performed. Flash ERGs were recorded with the Diagnosys Espion E2 ERG System (Diagnosys, LLC, Lowell, Mass.). Rats were maintained in total darkness overnight and prepared for ERG recording under dim red light. They were anesthetized with ketamine (120 mg/kg body weight) and xylazine (6 mg/kg body weight) intramuscularly (IM). One drop of 10% (v/v) phenylephrine was applied to the cornea to dilate the pupil, and one drop of 0.5% (v/v) proparacaine HCl was applied for local anesthesia. Rats were kept on a heating pad at 37° C. during recordings. A gold electrode was placed on the cornea, a reference electrode was positioned in the mouth, and a ground electrode was placed on the foot; rats were then placed inside a Ganzfeld illuminating sphere. Responses were differentially amplified, averaged, and stored. For the assessment of rod photoreceptor function (scotopic ERG), five strobe flash stimuli were presented at flash intensities at −2.3, −1.3, 0.7, and 2.7 log cd·s/m^2. The amplitude of the a-wave was measured from the pre-stimulus baseline to the a-wave trough. The amplitude of the b-wave was measured from the trough of the a-wave to the peak of the b-wave. For the evaluation of cone function (photopic ERG), a strobe flash stimulus (3.3 log cd·s/m^2) was presented to dilated, light-adapted (5 minutes at 1.7 log cd·s/m^2) rats. The amplitude of the cone b-wave was measured from the trough of the a-wave to the peak of the b-wave.
Histology—After ERG recordings, rats were killed by carbon dioxide asphyxiation for light microscopic evaluation of retinal structure. Immediately after death, eyes were excised, placed in fixative (4% (w/v) paraformaldehyde, 2% (v/v) trichloroacetic acid, 20% (v/v) isopropyl alcohol, 2% (v/v) zinc chloride, and 72% (v/v) distilled water), and embedded in paraffin. Sections of 5 μm were cut along the vertical meridian through the optic nerve and stained with hematoxylin and eosin (H&E).
The PBN derivatives were injected intraperitoneally (IP) into albino SD rats at 50 mg/kg body weight at 0.5 hours before the start of light-damage exposure at 2,700 lux for 6 hours. After the exposure, the rats were moved to their dim cyclic room to recover for a week. Retinal damage/protection was assessed by functional analysis by ERG and structural analysis of histological sections. Dark adapted (12 hour) and Light adapted (for 2 hour) retinas were utilized as controls.

[3] = apparent IC50, bovine RPE microsomes, all-trans-[3H] retinol substrate (Table 1), read-out: IC50 Values for the Inhibition of RPE65 Isomerohydrolase Reaction
[4] = in vitro RPE65 isomerohydrolase IC50 values repeated in Table 7, read-out: IC50
[5] = 50 mg/kg IP 0.5 h before 2,700 lux 6 h, ERG flash 4.0 cd·sec/m^2 (mostly rod function)
[6] = 50 mg/kg IP 0.5 h before 2,700 lux 6 h, ERG flash 400.0 cd·sec/m^2 (rod and cone function)
[7] = 50 mg/kg IP 0.5 h before 2,700 lux 6 h, NLD = 100, Saline LD = 0
[8] = 50 mg/kg IP 0.5 h before 2,700 lux 6 h, histology

T1 sequence (Q28175 whole entry): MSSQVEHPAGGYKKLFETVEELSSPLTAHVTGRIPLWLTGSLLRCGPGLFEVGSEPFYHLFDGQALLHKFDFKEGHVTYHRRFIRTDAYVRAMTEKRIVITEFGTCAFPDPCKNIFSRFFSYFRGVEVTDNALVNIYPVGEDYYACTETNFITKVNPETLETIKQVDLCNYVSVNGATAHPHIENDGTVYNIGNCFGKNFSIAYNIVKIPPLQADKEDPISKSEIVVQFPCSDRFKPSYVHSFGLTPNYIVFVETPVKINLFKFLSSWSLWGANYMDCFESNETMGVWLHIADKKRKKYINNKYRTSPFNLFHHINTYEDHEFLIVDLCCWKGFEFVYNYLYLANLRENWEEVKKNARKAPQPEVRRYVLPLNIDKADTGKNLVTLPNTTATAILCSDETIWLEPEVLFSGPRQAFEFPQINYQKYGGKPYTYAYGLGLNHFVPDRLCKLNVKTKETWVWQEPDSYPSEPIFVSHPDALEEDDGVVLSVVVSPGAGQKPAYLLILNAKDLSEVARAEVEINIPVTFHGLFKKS

IC50 (RPE65 isomerohydrolase; [3]) [µM] | IC50 (RPE65 isomerohydrolase; [4]) [µM] | SMILES | % of Rhodopsin recovery (rhodopsin [1]) [%] | inhibition of rhodopsin regeneration as eye drop (rhodopsin [1]; eye drop formulation, summary of Table 7) | inhibition at 50 mg/kg (rhodopsin [2]) [%] | RPE65 inhibition compared with PBN (RPE65 isomerohydrolase; summary of Table 1) | A-Wave value at 4 cd·sec/m^2 (Rat Retina; [5]) | B-Wave value at 4 cd·sec/m^2 (Rat Retina; [5]) | A-Wave value at 400 cd·sec/m^2 (Rat Retina; [6]) | B-Wave value at 400 cd·sec/m^2 (Rat Retina; [6]) | % Protection (A-Wave at 4 cd·sec/m^2) (Rat Retina; [7]) [%] | % Protection (A-Wave at 400 cd·sec/m^2) (Rat Retina; [7]) [%] | % Protection (B-Wave at 4 cd·sec/m^2) (Rat Retina; [7]) [%] | % Protection (B-Wave at 400 cd·sec/m^2) (Rat Retina; [7]) [%] | ONL Thickness (μm) Inferior retina (Rat Retina; [8]) [μm] | ONL Thickness (μm) Superior retina (Rat Retina; [8]) [μm] | protection of retinal function (ERG A- and B-wave) (Rat Retina; 50 mg/kg IP, FIGS. 11-12) | protective effect on retinal photoreceptors compared with PBN (Rat Retina; 50 mg/kg IP, ONL histology (FIGS. 14-16)) | % Protection (ONL, Inferior retina) (Rat Retina; NLD = 100, Saline LD = 0) [%] | % Protection (ONL, Superior retina) (Rat Retina; NLD = 100, Saline LD = 0) [%]
500 | 500 | COc1ccc(/C=[N+](\[O-])C(C)(C)C)cc1 [Compound 5, 4-Methoxyphenyl t-butyl nitrone] | 79.10 |  |  |  |  |  |  |  |  |  |  |  |  |  |  |  |  | 
500 | 500 | CC(C)(C)/[N+]([O-])=C/c1cc(F)cc(F)c1 [Compound 9, 3,5-Difluorophenyl t-butyl nitrone] |  |  |  |  |  |  |  |  |  |  |  |  |  |  |  |  |  | 
> 2000 | > 2000 | CCOc1ccc(/C=[N+](\[O-])C(C)(C)C)cc1 [Compound 6, 4-Ethoxyphenyl t-butyl nitrone] | 81.99 |  |  |  |  |  |  |  |  |  |  |  |  |  |  |  |  | 

SMILES | IC50 (RPE65 isomerohydrolase; [3]) [µM] | IC50 (RPE65 isomerohydrolase; [4]) [µM] | % of Rhodopsin recovery (rhodopsin [1]) [%] | inhibition of rhodopsin regeneration as eye drop (rhodopsin [1]; eye drop formulation, summary of Table 7) | inhibition at 50 mg/kg (rhodopsin [2]) [%] | RPE65 inhibition compared with PBN (RPE65 isomerohydrolase; summary of Table 1) | A-Wave value at 4 cd·sec/m^2 (Rat Retina; [5]) | B-Wave value at 4 cd·sec/m^2 (Rat Retina; [5]) | A-Wave value at 400 cd·sec/m^2 (Rat Retina; [6]) | B-Wave value at 400 cd·sec/m^2 (Rat Retina; [6]) | % Protection (A-Wave at 4 cd·sec/m^2) (Rat Retina; [7]) [%] | % Protection (A-Wave at 400 cd·sec/m^2) (Rat Retina; [7]) [%] | % Protection (B-Wave at 4 cd·sec/m^2) (Rat Retina; [7]) [%] | % Protection (B-Wave at 400 cd·sec/m^2) (Rat Retina; [7]) [%] | ONL Thickness (μm) Inferior retina (Rat Retina; [8]) [μm] | ONL Thickness (μm) Superior retina (Rat Retina; [8]) [μm] | protection of retinal function (ERG A- and B-wave) (Rat Retina; 50 mg/kg IP, FIGS. 11-12) | protective effect on retinal photoreceptors compared with PBN (Rat Retina; 50 mg/kg IP, ONL histology (FIGS. 14-16)) | % Protection (ONL, Inferior retina) (Rat Retina; NLD = 100, Saline LD = 0) [%] | % Protection (ONL, Superior retina) (Rat Retina; NLD = 100, Saline LD = 0) [%]
CC(C)(C)/[N+]([O-])=C/c1ccc(C(F)(F)F)cc1 [Compound 3, 4-Trifluoromethylphenyl t-butyl nitrone] | 60 | 60 | 52.80 | more effective in inhibiting rhodopsin regeneration than PBN | 82 | more effective at inhibiting RPE65 activity than the native PBN molecule | 148.1 | 478.7 | 234.7 | 560.0 | 80.4 | 79.7 | 64.9 | 71.2 | 39.8 ± 1.1 | 36.8 ± 1.4 | protected retinal function significantly | comparable to that of PBN | 91.6 | 83.1

Reference: patent US20130225694A1, “COMPOSITIONS AND METHODS OF INHIBITING RETINAL DEGENERATION” (Oklahoma Medical Research Foundation, priority 2012, published 2013)
